Where a SMILES comes first, the peptide text is derived from it. [ ]: non-standard residue; d: D form. NMeF = CN[C@@H](Cc1ccccc1)C(=O)O
Tests used:
Substance-K receptor = biological target: T1, Substance-K receptor (Homo sapiens, UniProt P21452)
T1 sequence (P21452 whole entry): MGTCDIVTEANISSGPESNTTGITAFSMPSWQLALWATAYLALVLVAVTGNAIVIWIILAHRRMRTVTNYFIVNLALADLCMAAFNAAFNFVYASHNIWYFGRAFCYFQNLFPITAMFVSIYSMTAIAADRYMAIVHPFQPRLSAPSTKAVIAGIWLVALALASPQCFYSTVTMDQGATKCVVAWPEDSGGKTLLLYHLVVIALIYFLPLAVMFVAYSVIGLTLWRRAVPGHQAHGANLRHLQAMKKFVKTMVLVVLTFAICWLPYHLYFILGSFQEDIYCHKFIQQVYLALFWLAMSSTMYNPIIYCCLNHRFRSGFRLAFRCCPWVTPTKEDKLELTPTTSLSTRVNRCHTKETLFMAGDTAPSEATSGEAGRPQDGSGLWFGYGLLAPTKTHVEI

Neuromedin-K receptor = biological target: T2, Neuromedin-K receptor (Homo sapiens, UniProt P29371)
T2 sequence (P29371 whole entry): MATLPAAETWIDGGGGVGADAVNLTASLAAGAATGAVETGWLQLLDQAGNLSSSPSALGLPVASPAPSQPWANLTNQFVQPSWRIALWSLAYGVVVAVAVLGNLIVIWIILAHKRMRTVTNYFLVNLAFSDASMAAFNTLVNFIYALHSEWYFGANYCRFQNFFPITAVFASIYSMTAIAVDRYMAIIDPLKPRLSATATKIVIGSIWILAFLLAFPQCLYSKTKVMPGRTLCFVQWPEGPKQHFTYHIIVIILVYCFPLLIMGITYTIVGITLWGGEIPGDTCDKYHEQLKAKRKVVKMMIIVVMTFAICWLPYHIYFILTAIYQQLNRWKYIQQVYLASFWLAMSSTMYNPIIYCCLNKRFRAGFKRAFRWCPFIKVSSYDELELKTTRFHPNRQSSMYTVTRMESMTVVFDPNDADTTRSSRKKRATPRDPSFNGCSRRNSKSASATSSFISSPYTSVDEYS

Substance-P receptor = Substance-P receptor (Homo sapiens, UniProt P25103)
Substance-P receptor, sequence (P25103 whole entry): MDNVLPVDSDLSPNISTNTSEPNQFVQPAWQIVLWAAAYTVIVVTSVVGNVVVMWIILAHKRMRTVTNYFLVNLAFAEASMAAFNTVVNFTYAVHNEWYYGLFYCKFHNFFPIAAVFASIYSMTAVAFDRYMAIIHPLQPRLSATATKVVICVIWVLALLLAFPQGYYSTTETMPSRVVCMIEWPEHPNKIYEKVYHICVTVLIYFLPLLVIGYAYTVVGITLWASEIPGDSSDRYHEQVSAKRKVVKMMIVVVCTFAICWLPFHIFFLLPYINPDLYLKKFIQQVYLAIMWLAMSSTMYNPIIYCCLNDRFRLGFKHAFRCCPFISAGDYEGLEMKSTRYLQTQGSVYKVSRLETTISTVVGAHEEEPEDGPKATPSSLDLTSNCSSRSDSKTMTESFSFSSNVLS

SMILES	Ki (Substance-K receptor) [nM]	Ki (Neuromedin-K receptor) [nM]	Ki (Substance-P receptor) [nM]
COc1ccccc1CN[C@H]1CCCN[C@H]1c1ccccc1 [(+/-)(2-Methoxy-benzyl)-(2-phenyl-piperidin-3-yl)-amine]	> 10000	> 10000	–
CSCC[C@H](NC(=O)[C@H](CC(C)C)NC(=O)CNC(=O)[C@H](Cc1ccccc1)N(C)C(=O)[C@H](Cc1ccccc1)NC(=O)[C@H](Cc1ccccc1)NC(=O)[C@H](CC(=O)O)NC(=O)[C@H](Cc1cnc[nH]1)NC(=O)[C@H](CCSC)NC(=O)[C@@H](N)CC(=O)O)C(N)=O [NKB [MePhe7]] (H-DMHDFF[NMeF]GLM-NH2)	–	0.31	> 10000
CSCC[C@H](NC(=O)[C@H](CC(C)C)NC(=O)CNC(=O)[C@@H](NC(=O)[C@H](Cc1ccccc1)NC(=O)[C@H](Cc1ccccc1)NC(=O)[C@H](CC(=O)O)NC(=O)[C@H](Cc1c[nH]cn1)NC(=O)[C@H](CCSC)NC(=O)[C@@H](N)CC(=O)O)C(C)C)C(N)=O [NSC_5311312]	16.5	–	–
CC(=O)NC1(c2ccccc2)CCN(CCC(CN(C)C(=O)c2ccccc2)c2ccc(Cl)c(Cl)c2)CC1 (stereo not drawn) [SR 48968]	0.23	707	454

From BindingDB's records for PubMed 9190866 (Smithkline Beecham Pharmaceuticals, 1997)
